Data: the supplement of paper PMC6045584
± gives the standard deviation of the averaged measurements.

These test systems were tested with CC[C@@H](C(=O)[C@@H](C)[C@@H](O)[C@H](C)[C@@H]1O[C@@H]([C@@H](CC)C(=O)O)CC[C@@H]1C)[C@H]1O[C@]2(C=C[C@@H](O)[C@]3(CC[C@@](C)([C@H]4CC[C@](O)(CC)[C@H](C)O4)O3)O2)[C@H](C)C[C@@H]1C [SALINOMYCIN] (assay: surviving fraction relative to DMSO-only wells; higher = less growth inhibition). Settings: 0.5 nM; exposure time: 5 days.
Procedure, shortened: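 Surviving fraction is CellTiter-Glo luminescence divided by the median of wells given DMSO only. For this, log-phase tumour cell lines went into 384-well plates at 250–500 cells per well and, 24 hours later, into five days of continuous inhibitor exposure at 0.5, 1, 5, 10, 50, 100, 500 and 1000 nM. Lines were screened three times and retained only if replicate Pearson r >0.7 and median Z' >0.3.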

Test System | surviving fraction
NOS1 BONE | 1.01 ± 0.071
SUM149.B1*.S BREAST | 1.02 ± 0.052
93VU HEADNECK | 0.887 ± 0.048
LM7 BONE | 1.01 ± 0.021
143B BONE | 0.98 ± 0.044
SUM159 BREAST | 0.979 ± 0.033
SUM149 BREAST | 0.981 ± 0.06
MDAMB361 BREAST | 0.826 ± 0.086
SAOS2 BONE | 0.98 ± 0.038
ASKA SYNOVIAL | 1.05 ± 0.088
HCC1395 BREAST | 1.06 ± 0.1
HCC1954 BREAST | 0.944 ± 0.29
CME SYNOVIAL | 1.12 ± 0.14
VCAP PROSTATE | 1.07 ± 0.18
YAMATO SYNOVIAL | 1.11 ± 0.044
HCC202 BREAST | 1.39 ± 0.31
HELA CERVIX | 0.974 ± 0.053
SG27 HEADNECK | 1.03 ± 0.099
CAL72 BONE | 1.05 ± 0.037
MDAMB134 BREAST | 1.05 ± 0.26

Test System | surviving fraction
C33A CERVIX | 0.812 ± 0.13
SKBR3 BREAST | 1 ± 0.13
MHM BONE | 0.988 ± 0.042
VP229 BREAST | 0.949 ± 0.074
SYO1 SYNOVIAL | 0.905 ± 0.038
ZR751 BREAST | 1.05 ± 0.086
KPD BONE | 0.931 ± 0.046
SIHA CERVIX | 0.875 ± 0.013
DU4475 BREAST | 0.949 ± 0.23
BT549 BREAST | 0.999 ± 0.033
COLO320DM LARGE INTESTINE | 1.05 ± 0.037
T47D BREAST | 1 ± 0.034
H23 LUNG | 0.969 ± 0.043
NCIH441 LUNG | 1.01 ± 0.034
HCT15 LARGE INTESTINE | 0.933 ± 0.022
SCC90 HEADNECK | 0.897 ± 0.073
MDAMB453 BREAST | 0.969 ± 0.025
MG63 BONE | 0.963 ± 0.02
A549 LUNG | 0.944 ± 0.028
MDAMB468 BREAST | 1 ± 0.02

Same assay, conditions: 1 nM; exposure time: 5 days

Test System | surviving fraction
NOS1 BONE | 1.07 ± 0.15
SUM149.B1*.S BREAST | 0.884 ± 0.057
93VU HEADNECK | 0.885 ± 0.11
LM7 BONE | 1.01 ± 0.068
143B BONE | 0.99 ± 0.026
SUM159 BREAST | 0.92 ± 0.13
SUM149 BREAST | 0.972 ± 0.14
MDAMB361 BREAST | 0.866 ± 0.041
SAOS2 BONE | 0.902 ± 0.077
ASKA SYNOVIAL | 0.926 ± 0.086
HCC1395 BREAST | 1.26 ± 0.26
HCC1954 BREAST | 0.82 ± 0.39
CME SYNOVIAL | 0.826 ± 0.031
VCAP PROSTATE | 1.04 ± 0.12
YAMATO SYNOVIAL | 0.733 ± 0.042
HCC202 BREAST | 0.95 ± 0.16
HELA CERVIX | 0.936 ± 0.068
SG27 HEADNECK | 1.09 ± 0.17
CAL72 BONE | 1.02 ± 0.044
MDAMB134 BREAST | 1.01 ± 0.22

Test System | surviving fraction
C33A CERVIX | 0.769 ± 0.16
SKBR3 BREAST | 1.09 ± 0.2
MHM BONE | 0.981 ± 0.046
VP229 BREAST | 0.907 ± 0.022
SYO1 SYNOVIAL | 0.832 ± 0.089
ZR751 BREAST | 1.01 ± 0.11
KPD BONE | 0.942 ± 0.013
SIHA CERVIX | 0.878 ± 0.011
DU4475 BREAST | 0.893 ± 0.28
BT549 BREAST | 1.18 ± 0.079
COLO320DM LARGE INTESTINE | 1.04 ± 0.036
T47D BREAST | 1.017 ± 0.0096
H23 LUNG | 0.957 ± 0.055
NCIH441 LUNG | 1.01 ± 0.038
HCT15 LARGE INTESTINE | 0.843 ± 0.059
SCC90 HEADNECK | 0.919 ± 0.035
MDAMB453 BREAST | 0.9587 ± 0.0015
MG63 BONE | 0.941 ± 0.032
A549 LUNG | 0.9123 ± 0.005
MDAMB468 BREAST | 1 ± 0.087

Same assay, conditions: 5 nM; exposure time: 5 days

Test System | surviving fraction
NOS1 BONE | 1.09 ± 0.025
SUM149.B1*.S BREAST | 0.955 ± 0.016
93VU HEADNECK | 1.01 ± 0.04
LM7 BONE | 1.06 ± 0.041
143B BONE | 1.02 ± 0.023
SUM159 BREAST | 0.865 ± 0.25
SUM149 BREAST | 1.02 ± 0.13
MDAMB361 BREAST | 0.877 ± 0.0093
SAOS2 BONE | 0.946 ± 0.073
ASKA SYNOVIAL | 1.02 ± 0.1
HCC1395 BREAST | 1.17 ± 0.11
HCC1954 BREAST | 0.919 ± 0.36
CME SYNOVIAL | 1.06 ± 0.15
VCAP PROSTATE | 1.09 ± 0.074
YAMATO SYNOVIAL | 0.984 ± 0.046
HCC202 BREAST | 0.918 ± 0.26
HELA CERVIX | 0.97 ± 0.059
SG27 HEADNECK | 0.997 ± 0.11
CAL72 BONE | 1.04 ± 0.018
MDAMB134 BREAST | 0.995 ± 0.0042

Test System | surviving fraction
C33A CERVIX | 1 ± 0.12
SKBR3 BREAST | 0.927 ± 0.12
MHM BONE | 1.01 ± 0.019
VP229 BREAST | 1.04 ± 0.15
SYO1 SYNOVIAL | 0.876 ± 0.056
ZR751 BREAST | 0.992 ± 0.14
KPD BONE | 1 ± 0.064
SIHA CERVIX | 0.935 ± 0.073
DU4475 BREAST | 0.857 ± 0.28
BT549 BREAST | 1.02 ± 0.056
COLO320DM LARGE INTESTINE | 1.11 ± 0.026
T47D BREAST | 0.983 ± 0.04
H23 LUNG | 0.9683 ± 0.0096
NCIH441 LUNG | 1.06 ± 0.054
HCT15 LARGE INTESTINE | 0.894 ± 0.028
SCC90 HEADNECK | 1.16 ± 0.059
MDAMB453 BREAST | 0.978 ± 0.027
MG63 BONE | 0.98 ± 0.021
A549 LUNG | 0.95 ± 0.033
MDAMB468 BREAST | 1.04 ± 0.026

Same assay, conditions: 10 nM; exposure time: 5 days

Test System | surviving fraction
NOS1 BONE | 1.05 ± 0.066
SUM149.B1*.S BREAST | 0.609 ± 0.014
93VU HEADNECK | 1.05 ± 0.023
LM7 BONE | 1.11 ± 0.065
143B BONE | 1.01 ± 0.027
SUM159 BREAST | 0.934 ± 0.12
SUM149 BREAST | 0.392 ± 0.03
MDAMB361 BREAST | 0.845 ± 0.058
SAOS2 BONE | 0.8803 ± 0.0075
ASKA SYNOVIAL | 0.582 ± 0.048
HCC1395 BREAST | 1.05 ± 0.15
HCC1954 BREAST | 1.03 ± 0.088
CME SYNOVIAL | 0.177 ± 0.069
VCAP PROSTATE | 1.14 ± 0.053
YAMATO SYNOVIAL | 0.216 ± 0.0092
HCC202 BREAST | 1.13 ± 0.17
HELA CERVIX | 0.906 ± 0.041
SG27 HEADNECK | 0.921 ± 0.094
CAL72 BONE | 1.06 ± 0.027
MDAMB134 BREAST | 1.08 ± 0.015

Test System | surviving fraction
C33A CERVIX | 1.05 ± 0.21
SKBR3 BREAST | 0.997 ± 0.051
MHM BONE | 0.9657 ± 0.0042
VP229 BREAST | 0.891 ± 0.12
SYO1 SYNOVIAL | 0.475 ± 0.14
ZR751 BREAST | 1.03 ± 0.092
KPD BONE | 0.979 ± 0.018
SIHA CERVIX | 0.967 ± 0.047
DU4475 BREAST | 0.9 ± 0.33
BT549 BREAST | 0.93 ± 0.031
COLO320DM LARGE INTESTINE | 0.522 ± 0.056
T47D BREAST | 0.898 ± 0.047
H23 LUNG | 0.959 ± 0.04
NCIH441 LUNG | 0.904 ± 0.06
HCT15 LARGE INTESTINE | 0.589 ± 0.016
SCC90 HEADNECK | 0.986 ± 0.14
MDAMB453 BREAST | 0.9897 ± 0.009
MG63 BONE | 0.946 ± 0.045
A549 LUNG | 0.907 ± 0.022
MDAMB468 BREAST | 1.01 ± 0.052
